# Assay results taken from paper PMC9229798, “Antioxidant Activity and Cytotoxicity of Aromatic Oligosulfides” (Molecules, 2022).
# Entries after “also recorded” stand apart in the source; their conditions may differ.
# Test system: not listed separately
# Assay: DPPH radical scavenging activity
# Conditions: compound solution 0.2 mM in MeOH, DPPH 0.1 mM, 40 min, 20 °C
# Source text: The redox activity of organosulfur compounds 1–6 can be assessed by the ability to interact with the stable radical 2,2-diphenyl-1-picrylhydrazyl (DPPH). The delocalization of the radical in the aromatic rings of DPPH ensures its high stability. Therefore, this method is widely used to determine the radical scavenging activity of compounds. It is known that there are two main mechanisms by which antioxidant molecules can deactivate free radicals: hydrogen atom transfer (HAT) and single electron transfer (SET). One of them may dominate depending on the conditions, the structure of the antioxidant and the type of analysis, but both will produce identical final products, despite the difference in mechanisms.
# The free radical scavenging activity was evaluated using the stable radical 2,2-diphenyl-1-picrylhydrazyl (DPPH), according to the method described by Brand-Williams with a slight modification. Solutions of compounds in MeOH were studied at a concentration of 0.2 mM. The stock DPPH solution contained 0.2 mM of radical in MeOH. An amount of 0.1 mL of the test compound solution was added to 0.1 mL of DPPH solution (0.2 mM) in each cell so that the initial DPPH concentration in cells was 0.1 mM. The microplate was placed in a spectrophotometer and the decrease in the absorbance values of DPPH solution for 40 min at 20 °C was measured at λmax = 517 nm. The results were expressed as scavenging activity, calculated as follows: scavenging activity, % = [(A0 − A1)/A0] × 100, where A0 is the optical density of the control solution DPPH, and A1 is the optical density of the reaction mixture solution.
row,SMILES,"DPPH, % (scavenging activity)"
1,"c1ccc(SSSc2ccccc2)cc1 [Compound 1, diphenyl trisulfide]",non active
2,"COc1ccccc1SSc1ccccc1OC [Compound 2, bis(2-methoxyphenyl) disulfide]",non active
3,"COc1ccc(SSc2ccc(OC)c(OC)c2)cc1OC [Compound 3, bis(3,4-dimethoxyphenyl) disulfide]",non active
4,"Oc1ccc(SSc2ccc(O)cc2)cc1 [Compound 4, 4,4′-dihydroxydiphenyl disulfide]",13.42 ± 0.02%
5,"c1ccc(SSc2ccccc2)cc1 [Compound 5, diphenyl disulfide]",non active
6,"CC(C)(C)c1cc(SSc2cc(C(C)(C)C)c(O)c(C(C)(C)C)c2)cc(C(C)(C)C)c1O [Compound 6, bis(3,5-di-tert-butyl-4-hydroxyphenyl) disulfide]",81.56 ± 0.07%

# Test system: not listed separately
# Assay: NBT assay, superoxide radical anion formation by xanthine oxidase
# Format: biochemical
# Conditions: sample solution 5 mM in DMSO
# Source text: The superoxide radical anion was generated in the xanthine/xanthine oxidase enzymatic system and reduced nitroblue tetrazolium (NBT) to an intensely blue colored diformazan (λ = 560 nm). There was a decrease in the concentration of diformazan in the presence of a potential antioxidant that absorbs O2^–•. […] Despite the fact that compounds 2 and 6 were structurally similar to the corresponding disulfides 3 and 4, they were not active in this assay.
# EDTA, xanthine, bovine serum albumin, nitroblue tetrazolium, and xanthine oxidase (25 MU) were purchased from Sigma Aldrich, Burlington, MA, USA. The superoxide anions were generated enzymatically by the xanthine oxidase system. The reaction mixture consisted of 2.70 mL of 40 mM sodium carbonate buffer containing 0.1 mM EDTA (pH 10.0), 0.06 mL of 10 mM xanthine, 0.03 mL of 0.5% bovine serum albumin, 0.03 mL of 2.5 mM nitroblue tetrazolium, and 0.06 mL of the sample solution in DMSO at the concentration of 5 mM. An amount of 0.12 mL of xanthine oxidase (0.04 units) was added to the mixture at 25 °C, and the absorbance at 560 nm (by formation of blue formazan) was measured by microplate spectrophotometer for 60 s. A control experiment was carried out by replacing the sample solution with the same amount of DMSO.
# Inhibition I (%) = [(1 − Ai/A0) × 100%], where Ai is the absorbance in the presence of the testing compound, A0 is the absorbance of the blank solution [78]. All experiments were performed three times.
row,SMILES,"NBT, % Inhibition"
1,"c1ccc(SSSc2ccccc2)cc1 [Compound 1, diphenyl trisulfide]",non active
2,"c1ccc(SSc2ccccc2)cc1 [Compound 5, diphenyl disulfide]",non active
3,"CC(C)(C)c1cc(SSc2cc(C(C)(C)C)c(O)c(C(C)(C)C)c2)cc(C(C)(C)C)c1O [Compound 6, bis(3,5-di-tert-butyl-4-hydroxyphenyl) disulfide]",not active; also recorded: non active

# More lines, now with the values ahead:
row,"NBT, % Inhibition",SMILES
1,not active; also recorded: non active,"COc1ccccc1SSc1ccccc1OC [Compound 2, bis(2-methoxyphenyl) disulfide]"
2,24.3 ± 0.05%,"COc1ccc(SSc2ccc(OC)c(OC)c2)cc1OC [Compound 3, bis(3,4-dimethoxyphenyl) disulfide]"
3,57.8 ± 0.07%,"Oc1ccc(SSc2ccc(O)cc2)cc1 [Compound 4, 4,4′-dihydroxydiphenyl disulfide]"

# Test system: A-549
# Assay: MTT assay
# Format: cell-based, human
# Conditions: Homo sapiens, A549, 72 h
# Experimental: (§1) The antiproliferative activity of aromatic oligosulfides 1–6 was determined against human cell lines, including colon carcinoma HCT-116, breast adenocarcinoma MCF-7, lung adenocarcinoma A-549, colorectal carcinoma SW-480, and non-tumourigenic WI-38, using the MTT assay (Table 4). […] However, some selectivity for cancer cells was evident and the IC50 values for non-tumourigenic cells were slightly higher for compounds 1 and 2.
# (§2) Cell survival was determined by the MTT [3-(4,5-[…])-2,5-diphenyl tetrazolium bromide] assay by Niks method with small modifications. HCT-116 (colon carcinoma), MCF-7 (breast adenocarcinoma), A-549 (lung adenocarcinoma) and SW-480 (colorectal carcinoma) human cancer cell lines and WI-38 (cell line composed of fibroblasts) were cultured in DMEM (PanEco, Moscow, Russia) with Glutamin (PanEco, Moscow, Russia) and antibiotics (PanEco, Moscow, Russia) in CO2 (5%) at 37 °C. The compounds were dissolved (20 mM) in DMSO and then added to the cell culture medium at the required concentration with a maximum DMSO content of 0.5 v/v%. At these concentrations, DMSO had no effect on cell viability, as was shown in the control experiments. Cells were cultured in 96-well plates (7000 cells/well) and treated with various concentrations (from […]) of the test compounds as well as doxorubicin at 37 °C for 72 h. Cell viability was determined using the MTT assay, which quantified dehydrogenase activity. Then, the cells were incubated at 37 °C for 50 min with a solution of MTT ([…], 5 mg × mL^−1) (Sigma-Aldrich, St. Louis, MO, USA). The supernatant was discarded, and cells were dissolved in DMSO ([…]). The optical density of the solution was measured at 570 nm with use of a multiwall-plate reader (Anthos Zenyth 2000rt, Biochrom, Cambridge, UK), and the percentage of surviving cells was calculated from the absorbance of untreated cells. Each experiment was repeated at least three times, and each concentration was tested in at least three replicates. Data were presented as a graph of the percentage of surviving cells versus the concentration of the test substances. The meanings of 50% inhibition concentration (IC50) with standard deviation were calculated using GraphPad Prism Version 5.03 for Windows (GraphPad Software, San Diego, CA, USA).
row,SMILES,IC50 [µM]
1,"c1ccc(SSSc2ccccc2)cc1 [Compound 1, diphenyl trisulfide]",43.6 ± 10.1
2,"c1ccc(SSc2ccccc2)cc1 [Compound 5, diphenyl disulfide]",39.2 ± 8.7
3,"CC(C)(C)c1cc(SSc2cc(C(C)(C)C)c(O)c(C(C)(C)C)c2)cc(C(C)(C)C)c1O [Compound 6, bis(3,5-di-tert-butyl-4-hydroxyphenyl) disulfide]",> 50

# These reach a lower IC50. Values come first.
row,IC50 [µM],SMILES
1,29.6 ± 7.5,"COc1ccccc1SSc1ccccc1OC [Compound 2, bis(2-methoxyphenyl) disulfide]"
2,15.5 ± 3.4,"COc1ccc(SSc2ccc(OC)c(OC)c2)cc1OC [Compound 3, bis(3,4-dimethoxyphenyl) disulfide]"
3,29.7 ± 6.1,"Oc1ccc(SSc2ccc(O)cc2)cc1 [Compound 4, 4,4′-dihydroxydiphenyl disulfide]"

# Test system: HCT-116
# Assay: MTT assay
# Format: cell-based, human
# Conditions: Homo sapiens, HCT-116, 72 h
# Experimental: as §1, §2
row,SMILES,IC50 [µM]
1,"c1ccc(SSSc2ccccc2)cc1 [Compound 1, diphenyl trisulfide]",18.8 ± 1.4
2,"c1ccc(SSc2ccccc2)cc1 [Compound 5, diphenyl disulfide]",22.1 ± 1.7
3,"CC(C)(C)c1cc(SSc2cc(C(C)(C)C)c(O)c(C(C)(C)C)c2)cc(C(C)(C)C)c1O [Compound 6, bis(3,5-di-tert-butyl-4-hydroxyphenyl) disulfide]",> 50

# More lines, now with the values ahead:
row,IC50 [µM],SMILES
1,24.4 ± 2.3,"COc1ccccc1SSc1ccccc1OC [Compound 2, bis(2-methoxyphenyl) disulfide]"
2,18.9 ± 2.1,"COc1ccc(SSc2ccc(OC)c(OC)c2)cc1OC [Compound 3, bis(3,4-dimethoxyphenyl) disulfide]"
3,22 ± 1.5,"Oc1ccc(SSc2ccc(O)cc2)cc1 [Compound 4, 4,4′-dihydroxydiphenyl disulfide]"

# Test system: MCF-7
# Assay: MTT assay
# Format: cell-based, human
# Conditions: Homo sapiens, MCF7, 72 h
# Experimental: as §1, §2
row,SMILES,IC50 [µM]
1,"c1ccc(SSSc2ccccc2)cc1 [Compound 1, diphenyl trisulfide]",37.6 ± 3.7
2,"c1ccc(SSc2ccccc2)cc1 [Compound 5, diphenyl disulfide]",34.8 ± 12.2
3,"CC(C)(C)c1cc(SSc2cc(C(C)(C)C)c(O)c(C(C)(C)C)c2)cc(C(C)(C)C)c1O [Compound 6, bis(3,5-di-tert-butyl-4-hydroxyphenyl) disulfide]",> 50

# Continued, values first:
row,IC50 [µM],SMILES
1,30.5 ± 5.2,"COc1ccccc1SSc1ccccc1OC [Compound 2, bis(2-methoxyphenyl) disulfide]"
2,37.7 ± 2.7,"COc1ccc(SSc2ccc(OC)c(OC)c2)cc1OC [Compound 3, bis(3,4-dimethoxyphenyl) disulfide]"
3,45.3 ± 3.1,"Oc1ccc(SSc2ccc(O)cc2)cc1 [Compound 4, 4,4′-dihydroxydiphenyl disulfide]"

# Test system: SW-480
# Assay: MTT assay
# Format: cell-based, human
# Conditions: Homo sapiens, SW480, 72 h
# Experimental: as §1, §2
row,SMILES,IC50 [µM]
1,"c1ccc(SSSc2ccccc2)cc1 [Compound 1, diphenyl trisulfide]",23.8 ± 4.5
2,"c1ccc(SSc2ccccc2)cc1 [Compound 5, diphenyl disulfide]",30.6 ± 5.6
3,"CC(C)(C)c1cc(SSc2cc(C(C)(C)C)c(O)c(C(C)(C)C)c2)cc(C(C)(C)C)c1O [Compound 6, bis(3,5-di-tert-butyl-4-hydroxyphenyl) disulfide]",> 50

# The next lines start with the values.
row,IC50 [µM],SMILES
1,22.4 ± 3.8,"COc1ccccc1SSc1ccccc1OC [Compound 2, bis(2-methoxyphenyl) disulfide]"
2,21.7 ± 2.4,"COc1ccc(SSc2ccc(OC)c(OC)c2)cc1OC [Compound 3, bis(3,4-dimethoxyphenyl) disulfide]"
3,39.4 ± 7.9,"Oc1ccc(SSc2ccc(O)cc2)cc1 [Compound 4, 4,4′-dihydroxydiphenyl disulfide]"
